Source: patent US20160038454A1, “INTRAVENOUS FORMULATIONS OF […] AS IMMUNOMODULATORS AND […] AGENTS” (priority 2013, published 2016)
“Also recorded” adds a separate entry of the source.

Legend:
[1] = TK: plasma triptolide levels, Calvert study (emulsion); format: in vivo, rodents; details: FIG. 1
Method: (§1) Triptolide prodrugs are generally believed to be safer than triptolide. […] Triptolide prodrugs as an emulsion formulation are believed to have a toxicokinetic profile characterized by a flat AUC with a minimized Cmax. [In conjunction, it was postulated that a sustained inhibition of RNA polymerase is needed for optimum efficacy which in turn requires a pharmcokinetic profile of constant exposure to drug]. […] The no effect dose (“NOAEL”) of PG796(MRx102) again exceeded 1.5 mg/kg/day intravenously for seven days in rodents confirming the initial results. It is interesting to ask why a prodrug of triptolide would be safer than the natural product itself; while not wishing to be bound by theory, perhaps the answer lies in the pharmacokinetic profile of triptolide administered either directly or released from its carrier, PG796(MRx102). […] It also remained above the therapeutic levels (shown as a thick line without symbols). The difference in the Cmax/AUC profile of PG796(MRx102) vs. triptolide is believed to be due to the physiochemical properties of the lipid prodrug/emulsion formulation combination. In general, triptolide prodrugs having a cLogP greater than 0.5 are more lipid-soluble than water soluble and are expected to take longer to convert to the drug form; such characteristics may yield a flatter conversion profile and less of a drug-release Cmax spike.
TK comparison of triptolide levels in Calvert and SRI studies—Males and Females

rodents = test: Rodent toxicology study, intravenous, seven days; format: in vivo
Method: as §1

[2] = Rodent toxicology study, intravenous, seven days; format: in vivo, rodents; details: in vivo, iv; intravenously for seven days in rodents; read-out: no effect dose (NOAEL)
Method: as §1

[3] = Solubility of PG796(MRx102) in triglyceride oils (GTO vs SBO); format: physicochemical; details: glyceryl trioctanoate vs soybean oil
[4] = tested on: IL-2 production by Jurkat cells; test: cells; format: cell-based, human
Method: Test samples can be diluted to 1 mM in complete tissue culture medium. Aliquots are placed in microculture plates coated with anti-CD3 antibody (used to stimulate the production of IL-2 by Jurkat cells), and serial dilutions are prepared so that the final concentration encompass the range of 0.001 to 10,000 nM in log increments. Cells from an exponentially expanding culture of Jurkat human T cell line (#TIB-152 obtained from American Type Culture Collection, Manassas, Va.) are harvested, washed once by centrifugation, re-suspended in complete tissue culture medium, and diluted to a concentration of 2×10^6 cells/ml. A volume of 50 μl of Jurkat cells (1×10^5 cells) is added to wells containing 100 μl of the diluted compounds, 50 μl of PMA (10 ng/ml) is added to each well, and the plates are incubated at 37° C. in a 5% CO2 incubator. After 24 hours, the plates are centrifuged to pellet the cells, 150 μl of supernatant is removed from each well, and the samples are stored at −20° C. The stored supernatants are analyzed for human IL-2 concentration using the Luminex 100 (Luminex Corporation, Austin, Tex.), Luminex microspheres coupled with anti-IL-2 capture antibody, and fluorochrome-coupled anti-IL-2 detection antibody. The data are expressed as pg/ml of IL-2.

[5] = tested on: human T cell lymphoma (Jurkat) cells; test: in vitro; format: cell-based
Method: Test compounds may be dissolved in DMSO at a concentration of 20 mM. Further dilutions may be done in RPMI1640 medium (GIBCO, Rockville, Md.) supplemented with 10% Fetal Calf Serum (HyClone Laboratories, Logan, Utah).
Cytotoxicity of the compounds is determined in a standard MTT assay using Cell Proliferation Kit I (#1 465 007, Roche Diagnostics, Mannheim, Germany). Briefly, human T cell lymphoma (Jurkat) cells (4×10^5 per well) are cultured for 24 h, in 96-well tissue culture plates, in the presence of serial three-fold dilutions of test compounds or medium containing the same concentration of DMSO as in the test samples at each dilution point. The cultures are then supplemented with 10 μl/well MTT reagent for 4 h and then with 0.1 ml/well solubilizing reagent for an additional 16 h. Optical density at 570 nm (OD570) is measured on a ThermoScan microplate reader (Molecular Devices, Menlo Park, Calif.).

[6] = tested on: bulk, CD34(+) progenitor and CD34(+)CD38(−) stem/progenitor cells from AML patients; details: low nanomolar concentrations; also in coculture with mesenchymal stromal cells; Carter et al. 2012; cited from earlier work
[7] = PG796(MRx102) purity (peak area %) / stability in emulsions; format: physicochemical
Method: Pharmaceutical emulsions are typically prepared at neutral to slightly alkaline pH since they are stabilized by electrostatic repulsion between droplets imparted by pH-sensitive anionic surfactants, such as phosphatidyl ethanolamine, free fatty acid salts, and cholate. However, it was possible that this pH range could be suboptimal for the chemical stability of PG796(MRx102). To test this, emulsions were prepared at different pH values ranging from 4 to 8. Buffers were included to control the pH, and the non-pH sensitive surfactant, sodium dodecyl sulfate was used in place of sodium cholate to assure a negative charge even in the low pH emulsions. All of the formulations were reasonably stable for up to 2 weeks at room temperature. […]

[8] = Jurkat cells, comparison with triptolide or PG490-88
[9] = incubated in human serum compared with mouse serum

## CC(C)[C@]12O[C@H]1[C@@H]1O[C@]13[C@]1(O[C@H]1C[C@H]1c4c(C(=O)c5ccccc5)oc(OC(=O)c5ccccc5)c4CC[C@@]13C)[C@@H]2O [PG796, 18-deoxo-19-dehydro-18-benzoyloxy-19-benzoyl triptolide]
[1]; intravenous, emulsion
  triptolide Cmax after prodrug relative to triptolide administered directly: approximately one-tenth
[1]; prodrug administered
  triptolide blood levels over time: remained relatively constant
rodents; intravenous doses up to 1.5 mg/kg/day for seven days, initial rodent toxicology study
  gross or histopathologic toxic effects: no gross or histopathologic toxic effects
rodents; intravenous, emulsion formulation, rodents, gross and histopathologic criteria
  toxicity relative to triptolide (times less toxic): at least 20 times
[2]
  NOAEL at 7 days: > 1.5 mg/kg/day
[3]
  solubility in GTO relative to SBO: about 3.4 fold
[4]; [8]
  IL-2 inhibition (in words): inhibited IL-2 production; also recorded: higher level of activity
[4]; [9]
  activity in IL-2 inhibition assay after incubation in human serum vs mouse serum: high, and essentially equivalent, activity
[5]; [8]
  cytotoxic activity in MTT assay (in words): cytotoxic; also recorded: higher level of activity
[5]; [9]
  activity in MTT assay after incubation in human serum vs mouse serum: high, and essentially equivalent, activity
[6]
  apoptosis in cells from AML patients: induced apoptosis
[7]; emulsion target pH 4.0 (acetate), 0 hr
  PG796 (MRx102) Purity: 98.9 peak area %
[7]; emulsion target pH 4.0 (acetate), 1 wk
  PG796 (MRx102) Purity: 98.9 peak area %
[7]; emulsion target pH 4.0 (acetate), 2 wk
  PG796 (MRx102) Purity: 97.2 peak area %
[7]; emulsion target pH 4.0 (acetate), 24 hr
  PG796 (MRx102) Purity: 99.3 peak area %
[7]; emulsion target pH 5.0 (acetate), 0 hr
  PG796 (MRx102) Purity: 99.2 peak area %
[7]; emulsion target pH 5.0 (acetate), 1 wk
  PG796 (MRx102) Purity: 99.1 peak area %
[7]; emulsion target pH 5.0 (acetate), 2 wk
  PG796 (MRx102) Purity: 98.3 peak area %
[7]; emulsion target pH 5.0 (acetate), 24 hr
  PG796 (MRx102) Purity: 99.4 peak area %
[7]; emulsion target pH 6.0 (histidine), 0 hr
  PG796 (MRx102) Purity: 99.2 peak area %
[7]; emulsion target pH 6.0 (histidine), 1 wk
  PG796 (MRx102) Purity: 98.9 peak area %
[7]; emulsion target pH 6.0 (histidine), 2 wk
  PG796 (MRx102) Purity: 98.8 peak area %
[7]; emulsion target pH 6.0 (histidine), 24 hr
  PG796 (MRx102) Purity: 99.2 peak area %
[7]; emulsion target pH 7.0 (phosphate), 0 hr
  PG796 (MRx102) Purity: 99.4 peak area %
[7]; emulsion target pH 7.0 (phosphate), 1 wk
  PG796 (MRx102) Purity: 98.8 peak area %
[7]; emulsion target pH 7.0 (phosphate), 2 wk
  PG796 (MRx102) Purity: 91.0 peak area %
[7]; emulsion target pH 7.0 (phosphate), 24 hr
  PG796 (MRx102) Purity: 99.1 peak area %
[7]; emulsion target pH 8.0 (Tris), 0 hr
  PG796 (MRx102) Purity: 98.7 peak area %
[7]; emulsion target pH 8.0 (Tris), 1 wk
  PG796 (MRx102) Purity: 99.1 peak area %
[7]; emulsion target pH 8.0 (Tris), 2 wk
  PG796 (MRx102) Purity: 98.3 peak area %
[7]; emulsion target pH 8.0 (Tris), 24 hr
  PG796 (MRx102) Purity: 99.2 peak area %
[7]; pH 4 to 8
  pH dependence of stability of PG796(MRx102) in the emulsion: not pH-dependent
